In patent publication US11351178B2, “Selective HDAC6 inhibitors” (ITALFARMACO S.P.A., priority 2017, dated 2022):
pIC50: −log10 of the molar value.

Target: T1, recombinant human HDAC6 (Homo sapiens, UniProt Q9UBN7)
T1 sequence (Q9UBN7 1-1215): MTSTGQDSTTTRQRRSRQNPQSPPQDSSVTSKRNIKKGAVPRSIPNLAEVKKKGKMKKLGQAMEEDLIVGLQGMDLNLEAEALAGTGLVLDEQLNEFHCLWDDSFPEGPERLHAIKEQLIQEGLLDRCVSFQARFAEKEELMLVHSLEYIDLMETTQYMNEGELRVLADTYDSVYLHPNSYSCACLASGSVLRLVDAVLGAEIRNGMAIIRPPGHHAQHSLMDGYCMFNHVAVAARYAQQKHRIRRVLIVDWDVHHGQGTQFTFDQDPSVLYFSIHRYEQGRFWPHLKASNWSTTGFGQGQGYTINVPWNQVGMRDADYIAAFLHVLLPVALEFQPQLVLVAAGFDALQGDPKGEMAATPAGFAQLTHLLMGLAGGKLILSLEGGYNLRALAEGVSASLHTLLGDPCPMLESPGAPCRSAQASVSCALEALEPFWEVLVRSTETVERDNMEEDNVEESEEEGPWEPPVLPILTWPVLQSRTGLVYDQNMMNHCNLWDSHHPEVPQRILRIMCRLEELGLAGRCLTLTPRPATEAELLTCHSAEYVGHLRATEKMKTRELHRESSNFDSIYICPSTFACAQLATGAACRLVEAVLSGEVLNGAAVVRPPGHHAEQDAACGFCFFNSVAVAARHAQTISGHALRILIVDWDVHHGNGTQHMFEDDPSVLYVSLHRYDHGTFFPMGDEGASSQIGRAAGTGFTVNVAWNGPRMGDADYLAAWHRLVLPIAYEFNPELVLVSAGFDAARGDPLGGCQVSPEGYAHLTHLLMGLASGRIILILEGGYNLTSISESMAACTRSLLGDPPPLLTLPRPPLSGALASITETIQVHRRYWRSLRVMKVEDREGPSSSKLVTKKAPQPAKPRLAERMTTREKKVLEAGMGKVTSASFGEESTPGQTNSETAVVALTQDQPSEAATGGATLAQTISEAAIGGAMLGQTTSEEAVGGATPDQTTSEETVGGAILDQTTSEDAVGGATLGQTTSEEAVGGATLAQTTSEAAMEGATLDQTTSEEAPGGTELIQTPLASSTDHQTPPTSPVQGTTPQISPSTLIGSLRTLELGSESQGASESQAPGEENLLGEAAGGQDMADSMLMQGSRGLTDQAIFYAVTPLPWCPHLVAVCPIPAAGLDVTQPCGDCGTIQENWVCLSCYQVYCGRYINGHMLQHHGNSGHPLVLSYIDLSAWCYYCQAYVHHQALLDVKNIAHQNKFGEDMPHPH
Assay: Enzymatic screening on recombinant human HDAC6
Type: biochemical
Details: Table 2; read-out: HDAC6 IC50
Procedure: Enzymatic activity on recombinant human HDAC6 and HDAC3 was evaluated (Table 2) for each synthesized compound.
After a period of incubation at 30° C. (incubation times vary for different isoforms and are shown in table 1) 25 μL of solution containing the substrate were added. As substrate, FLUOR DE LYS® deacetylase substrate (Enzo Life Sciences, cat #BML-K1104, FdL), FLUOR DE LYS®-Green substrate (Enzo Life Sciences, cat #BML-K1572 FdL_G) and trifluoroacetyl-L-lysine (Tfal)-2× concentrated solution in 25 mM Tris-HCl, pH 8, 130 mM NaCl 0.05% Tween-20 10% glycerol) were used. Following a reaction period at 30° C.

Row | SMILES | pIC50
1 | COc1ccc(CCC(=O)N[C@@H](Cc2cscn2)c2nc(Cc3ccc(C(=O)NO)cc3)no2)cc1OC [comp. 21, 3-(3,4-dimethoxyphenyl)-N-[(1S)-1-[3-[[4-(hydroxycarbamoyl)phenyl]methyl]-1,2,4-oxadiazol-5-yl]-2-thiazol-4-yl-ethyl]propanamide] | 6.94
2 | O=C(NO)c1ccc(Sc2nnc(-c3ccccc3)n2-c2ccccc2)cc1 [comp. 24, 4-[(4,5-diphenyl-1,2,4-triazol-3-yl)sulfanyl]benzenecarbohydroxamic acid] | 7.25
3 | COc1ccc(Cc2nnc(-c3ccc(C(=O)NO)cc3)o2)cc1OC [comp. 26, 4-[5-[(3,4-dimethoxyphenyl)methyl]-1,3,4-oxadiazol-2-yl]benzenecarbohydroxamic acid] | 6.59
4 | O=C(NO)c1ccc(Sc2nnc(Cc3ccccc3)n2-c2ccc(F)cc2)cc1 [comp. 27, 4-[[5-benzyl-4-(4-fluorophenyl)-1,2,4-triazol-3-yl]sulfanyl]benzenecarbohydroxamic acid;2,2,2-trifluoroacetic acid] | 7.11
5 | O=C(NO)c1ccc(Cn2nnc(-c3ccc(Cl)s3)n2)cc1 [comp. 32, 4-[[5-(5-chloro-2-thienyl)tetrazol-2-yl]methyl]benzenecarbohydroxamic acid] | 8.22
6 | O=C(NO)c1ccc(Cn2nnc(-c3ccc(F)cc3)n2)cc1 [comp. 34, 4-[[5-(4-fluorophenyl)tetrazol-2-yl]methyl]benzenecarbohydroxamic acid] | 8.15
7 | COc1ccc(-c2nnn(Cc3ccc(C(=O)NO)cc3)n2)cc1 [comp. 35, 4-[[5-(4-methoxyphenyl)tetrazol-2-yl]methyl]benzenecarbohydroxamic acid] | 8.30
8 | Cc1ccc(-c2nnn(Cc3ccc(C(=O)NO)cc3)n2)s1 [comp. 41, 4-[[5-(5-methyl-2-thienyl)tetrazol-2-yl]methyl]benzenecarbohydroxamic acid] | 8.40
9 | O=C(NO)c1ccc(Cn2nnc(-c3scc4c3OCCO4)n2)cc1 [comp. 43, 4-[[5-(2,3-dihydrothieno[3,4-b][1,4]dioxin-5-yl)tetrazol-2-yl]methyl]benzenecarbohydroxamic acid] | 8.52
10 | O=C(NO)c1ccc(Cn2nnc(-c3ccccc3F)n2)cc1 [comp. 46, 4-[[5-(2-fluorophenyl)tetrazol-2-yl]methyl]benzenecarbohydroxamic acid] | 8.30
11 | N[C@@H](Cc1cscn1)c1nc(Cc2ccc(C(=O)NO)cc2)no1 [comp. 48, (S)-4-((5-(1-amino-2-(thiazol-4-yl)ethyl)-1,2,4-oxadiazol-3-yl)methyl)-N-hydroxybenzamide 2,2,2-trifluoroacetate] | 6.59
12 | O=C(NO)c1ccc(Cc2nc(-c3ccc(Cl)cc3)nn2Cc2ccccc2)cc1 [comp. 51, 4-[[2-benzyl-5-(4-chlorophenyl)-1,2,4-triazol-3-yl]methyl]benzenecarbohydroxamic acid] | 6.43
13 | O=C(NO)c1ccc(Cc2nc(-c3cccs3)nn2-c2ccccn2)cc1 [comp. 52, 4-[[2-(2-pyridyl)-5-(2-thienyl)-1,2,4-triazol-3-yl]methyl]benzenecarbohydroxamic acid] | 6.46
14 | COc1ccccc1-n1nc(-c2cccs2)nc1Cc1ccc(C(=O)NO)cc1 [comp. 53, 4-[[2-(2-methoxyphenyl)-5-(2-thienyl)-1,2,4-triazol-3-yl]methyl]benzenecarbohydroxamic acid] | 6.48
15 | O=C(NO)c1ccc(Nc2nnc(-c3ccccc3)o2)cc1 [comp. 60, 4-[(5-phenyl-1,3,4-oxadiazol-2-yl)amino]benzenecarbohydroxamic acid] | 6.87
16 | O=C(NO)c1ccc(Nc2nnc(-c3cccc(S(=O)(=O)N4CCCC4)c3)o2)cc1 [comp. 63, 4-[[5-(3-pyrrolidin-1-ylsulfonylphenyl)-1,3,4-oxadiazol-2-yl]amino]benzenecarbohydroxamic acid] | 6.17
17 | O=C(NO)c1ccc(Cc2nnc(-c3cccc(S(=O)(=O)N4CCOCC4)c3)o2)cc1 [comp. 64, 4-[[5-(3-morpholinosulfonylphenyl)-1,3,4-oxadiazol-2-yl]methyl]benzenecarbohydroxamic acid] | 7.89
18 | O=C(NO)c1ccc(Cc2nnc(-c3ccc(S(=O)(=O)N4CCCC4)cc3)o2)cc1 [comp. 69, 4-[[5-(4-pyrrolidin-1-ylsulfonylphenyl)-1,3,4-oxadiazol-2-yl]methyl]benzenecarbohydroxamic acid] | 7.96
19 | O=C(NO)c1ccc(Sc2nc(C3CC3)n(-c3ccccc3)n2)cc1 [comp. 72, 4-[(5-cyclopropyl-1-phenyl-1,2,4-triazol-3-yl)sulfanyl]benzenecarbohydroxamic acid] | 6.79
20 | CN(C)c1ccc(-c2nnc(Sc3ccc(C(=O)NO)cc3)n2C)cc1 [comp. 73, 4-[[5-[4-(dimethylamino)phenyl]-4-methyl-1,2,4-triazol-3-yl]sulfanyl]benzenecarbohydroxamic acid] | 8.10
21 | O=C(NO)c1ccc(Cn2nnnc2-c2ccco2)cc1 [comp. 86, 4-[[5-(2-furyl)tetrazol-1-yl]methyl]benzenecarbohydroxamic acid] | 7.41
22 | O=C(NO)c1ccc(Cn2nnnc2-c2nccc3ccccc23)cc1 [comp. 88, 4-[[5-(1-isoquinolyl)tetrazol-1-yl]methyl]benzenecarbohydroxamic acid] | 8.70
23 | O=C(NO)c1ccc(Cn2nnc(-c3ccc4ccccc4n3)n2)cc1 [comp. 90, 4-[[5-(2-quinolyl)tetrazol-2-yl]methyl]benzenecarbohydroxamic acid] | 7.70
24 | O=C(NO)c1cc(F)c(Sc2nnc(-c3cccs3)[nH]2)c(F)c1 [comp. 97, 3,5-difluoro-4-[[5-(2-thienyl)-4H-1,2,4-triazol-3-yl]sulfanyl]benzenecarbohydroxamic acid] | 7.29
25 | O=C(NO)c1ccc(Cn2nnc(-c3cccc(S(F)(F)(F)(F)F)c3)n2)cc1 [comp. 106, 4-[[5-[3-(pentafluoro-lambda6-sulfanyl)phenyl]tetrazol-2-yl]methyl]benzenecarbohydroxamic acid] | 7.59
26 | O=C(NO)c1ccc(Cn2nnnc2-c2cccc(S(F)(F)(F)(F)F)c2)cc1 [comp. 107, 4-[[5-[3-(pentafluoro-lambda6-sulfanyl)phenyl]tetrazol-1-yl]methyl]benzenecarbohydroxamic acid] | 6.79
27 | O=C(NO)c1cc(F)c(Cn2nnc(-c3cccc(S(F)(F)(F)(F)F)c3)n2)c(F)c1 [comp. 108, 3,5-difluoro-4-[[5-[3-(pentafluoro-lambda6-sulfanyl)phenyl]tetrazol-2-yl]methyl]benzenecarbohydroxamic acid] | 6.97
28 | O=C(NO)c1ccc(Cn2nnnc2-c2ccc(S(F)(F)(F)(F)F)cc2)cc1 [comp. 111, 4-[[5-[4-(pentafluoro-lambda6-sulfanyl)phenyl]tetrazol-1-yl]methyl]benzenecarbohydroxamic acid] | 6.57
29 | O=C(NO)c1cc(F)c(Cn2nnc(-c3ccc(S(F)(F)(F)(F)F)cc3)n2)c(F)c1 [comp. 112, 3,5-difluoro-4-[[5-[4-(pentafluoro-lambda6-sulfanyl)phenyl]tetrazol-2-yl]methyl]benzenecarbohydroxamic acid] | 6.91
30 | O=C(NO)c1cc(F)c(Cn2nnnc2-c2ccc(S(F)(F)(F)(F)F)cc2)c(F)c1 [comp. 113, 3,5-difluoro-4-[[5-[4-(pentafluoro-lambda6-sulfanyl)phenyl]tetrazol-1-yl]methyl]benzenecarbohydroxamic acid] | 6.80
